Measurements reported in US20110053773A1, “METHODS OF IMPROVING NUTRITIONAL VALUE OF PLANTS” (UNIVERSITY OF TENNESSEE RESEARCH FOUNDATION, priority 2009, published 2011).

Experiments:
[1] = test system: sweet corn (Zea mays var. rugosa) cultivar 'Incredible'; assay: Content analysis of sweet corn ears: crude protein, amino acids, detergent fiber, fatty acids, minerals (Example 1); format: in vivo; conditions: POST at b59 rates; every treatment incl. check also got atrazine 560 g ai/ha + COC 1% v/v; relative to treated check (atrazine), check=0
Text: Herbicide treatments were applied in a water carrier at 23 gallons of solution per acre on a field site near Knoxville, Tenn. and Painter, Va. Treatments include the following: 1) nicosulfuron at 35 g ai/ha (Accent); 2) mesotrione at 105 g ai/ha (Callisto); 3) nicosulfuron at 35 g ai/ha+mesotrione at 105 g ai/ha (Callisto+Accent); 4) tembotrione at 92 g ai/ha+isoxadifen-ethyl at 46 g ai/ha (Laudis); 5) topramezone at 15 g ai/ha (Impact); 6) nicosulfuron at 35 g ai/ha+isoxadifen-ethyl at 9 g ai/ha (Accent Q); 7) nicosulfuron at 35 g ai/ha+isoxadifen-ethyl at 9 g ai/ha+topramezone at 15 g ai/ha (Accent Q+Impact); 8) nicosulfuron 35 g ai/ha+isoxadifen-ethyl at 9 g ai/ha+mesotrione at 105 g ai/ha (Accent Q+Callisto); 9) treated check (atrazine or Aatrex). All treatments included a PRE application of atrazine plus metolachlor in order to maintain weed free conditions. In addition, all POST treatments (including the treated check) included atrazine at 560 g ai/ha and crop oil concentrate at 1% v/v. […] Sweet corn was harvested from the center two rows of each four row plot and weighed in the husk.

[2] = test system: sweet corn cultivars 'Merit', 'Temptation', 'Incredible'; assay: Visual leaf tissue bleaching of sweet corn (Example 3, Table 9); format: in vivo; conditions: mesotrione 105, atrazine 560 g ai/ha
Method: Studies were conducted in a field in Knoxville, Tenn. to ascertain the growth, stress tolerance and nutritional quality differences following postemergence applications of herbicides mesotrione and atrazine, alone and in mixtures together, on the young sweet corn cultivars: ‘Merit’ (yellow-kernel sensitive genotype), ‘Temptation’ (bicolor tolerant genotype), and ‘Incredible’ (yellow-kernel moderately sensitive genotype).
Herbicide treatments were applied as follows: 1) untreated control; 2) mesotrione (meso) at 105 g ai/ha EPOST; 3) mesotrione at 105+atrazine at 560 g ai/ha EPOST; 4) atrazine at 560 g ai/ha EPOST; 5) mesotrione at 105 g ai/ha LPOST; 6) mesotrione at 105+atrazine at 560 g ai/ha LPOST; and 7) atrazine at 560 g ai/ha LPOST. Visual ratings of plant growth were taken during season, and kernels for carotenoids were measured at harvest.

**Q.** For `CS(=O)(=O)c1ccc(C(=O)C2C(=O)CCCC2=O)c([N+](=O)[O-])c1` [Mesotrione*CALLISTO, mesotrione], which “Acid DF” value [1] is on record?
**A.** Its value is 10 % of check.

**Q.** What about the Alanine [1] of the same molecule?
**A.** The Alanine was 4 % of check.

**Q.** And the “Amino Acid” value [1]?
**A.** Its value is 6 % of check.

**Q.** And the Aspartic ac [1]?
**A.** The Aspartic ac was 7 % of check.

**Q.** What about the Cysteine [1] of the same molecule?
**A.** Its Cysteine is 6 % of check.

**Q.** What about the Glutamic ac [1] of the same molecule?
**A.** The Glutamic ac was 6 % of check.

**Q.** And the Glycine [1]?
**A.** The Glycine was 4 % of check.

**Q.** And the Isoleucine [1]?
**A.** The Isoleucine was 6 % of check.

**Q.** What about the Leucine [1] of the same molecule?
**A.** Its Leucine is 6 % of check.

**Q.** What about the Lysine [1] of the same molecule?
**A.** The Lysine was 12 % of check.

**Q.** What about the Methionine [1] of the same molecule?
**A.** The Methionine was 2 % of check.

**Q.** And the “Neutral DF” value [1]?
**A.** The value was 13 % of check.

**Q.** What about the Proline [1] of the same molecule?
**A.** Its Proline is 9 % of check.

**Q.** What about the Protein [1] of the same molecule?
**A.** Its Protein is 7 % of check.

**Q.** And the Threonine [1]?
**A.** The Threonine was 16 % of check.

**Q.** What about the Valine [1] of the same molecule?
**A.** Its Valine is 7 % of check.

**Q.** What about the calcium [1] of the same molecule?
**A.** Its calcium is 0 % of check.

**Q.** What about the copper [1] of the same molecule?
**A.** The copper was 0 % of check.

**Q.** What about the iron [1] of the same molecule?
**A.** Its iron is 21 % of check.

**Q.** What about the magnesium [1] of the same molecule?
**A.** Its magnesium is 20 % of check.

**Q.** What about the manganese [1] of the same molecule?
**A.** The manganese was 25 % of check.

**Q.** And the mon fattyac [1]?
**A.** Its mon fattyac is 9 % of check.

**Q.** And the phosphorous [1]?
**A.** The phosphorous was 12 % of check.

**Q.** And the polyfattyac [1]?
**A.** Its polyfattyac is 12 % of check.

**Q.** And the potassium [1]?
**A.** The potassium was 12 % of check.

**Q.** What about the sat fattyac [1] of the same molecule?
**A.** The sat fattyac was 7 % of check.

**Q.** What about the sodium [1] of the same molecule?
**A.** Its sodium is 21 % of check.

**Q.** What about the tot fattyac [1] of the same molecule?
**A.** The tot fattyac was 11 % of check.

**Q.** What about the zinc [1] of the same molecule?
**A.** The zinc was 16 % of check.

**Q.** And the “Leaf Tissue Visual Bleaching (%)” value ([2]; ‘Incredible’, 7 DAT, EPOST)?
**A.** Its value is 16%.

**Q.** And the “Leaf Tissue Visual Bleaching (%)” value ([2]; ‘Incredible’, 7 DAT, LPOST)?
**A.** The value was 11%.

**Q.** What about the “Leaf Tissue Visual Bleaching (%)” value ([2]; ‘Incredible’, 14 DAT, EPOST) of the same molecule?
**A.** The value was 9%.

**Q.** And the “Leaf Tissue Visual Bleaching (%)” value ([2]; ‘Incredible’, 14 DAT, LPOST)?
**A.** Its value is 9%.

**Q.** And the “Leaf Tissue Visual Bleaching (%)” value ([2]; ‘Incredible’, 21 DAT, EPOST)?
**A.** Its value is 8%.

**Q.** What about the “Leaf Tissue Visual Bleaching (%)” value ([2]; ‘Incredible’, 21 DAT, LPOST) of the same molecule?
**A.** Its value is 1%.

**Q.** What about the “Leaf Tissue Visual Bleaching (%)” value ([2]; ‘Merit’, 7 DAT, EPOST) of the same molecule?
**A.** The value was 61%.

**Q.** And the “Leaf Tissue Visual Bleaching (%)” value ([2]; ‘Merit’, 7 DAT, LPOST)?
**A.** The value was 34%.

**Q.** And the “Leaf Tissue Visual Bleaching (%)” value ([2]; ‘Merit’, 14 DAT, EPOST)?
**A.** The value was 53%.

**Q.** And the “Leaf Tissue Visual Bleaching (%)” value ([2]; ‘Merit’, 14 DAT, LPOST)?
**A.** The value was 29%.

**Q.** And the “Leaf Tissue Visual Bleaching (%)” value ([2]; ‘Merit’, 21 DAT, EPOST)?
**A.** Its value is 44%.

**Q.** And the “Leaf Tissue Visual Bleaching (%)” value ([2]; ‘Merit’, 21 DAT, LPOST)?
**A.** The value was 9%.
